No end group written: not given here.
Tests used:
[1] = mouse, plasma
B3Z T-cells = assay type: cell-based, murine

FIGITELKKLESKINKVFAVGALKVPRNQDWLGVPRQL [UU-30]
half-life [1]: 20 min

FIGITELKKLESKINKVFLEQLESIINFEKLAAAAAK [UU-05]
T-cell activation after BMDC incubation with antibody constructs and the peptide (B3Z T-cells): resulted in T-cell activation

LEQLESIINFEKLAAAAAK [UU-10, reference compound]
T-cell activation after BMDC incubation with antibody constructs and the peptide (B3Z T-cells): did not give rise to T-cell activation
